Reference: patent US20230416248A1, “COMPOUNDS AND USES THEREOF” (Foghorn Therapeutics Inc., priority 2020, published 2023)
Read-outs that look alike come from different tables or passages of the source.

Legend:
BRM = target: T1, BRM (Homo sapiens, UniProt P51531); assay: ATPase catalytic activity of BRM, ADP-Glo in vitro biochemical assay; details: for IC50: 30 nM BRM, 400 μM ATP; for Ratio* (BRG1 IC50 (μM) divided by BRM IC50 (μM)): selectivity ratio BRG1 IC50 / BRM IC50
T1 construct: made in house; host or cells: High Five insect cells
T1 sequence (P51531 whole entry): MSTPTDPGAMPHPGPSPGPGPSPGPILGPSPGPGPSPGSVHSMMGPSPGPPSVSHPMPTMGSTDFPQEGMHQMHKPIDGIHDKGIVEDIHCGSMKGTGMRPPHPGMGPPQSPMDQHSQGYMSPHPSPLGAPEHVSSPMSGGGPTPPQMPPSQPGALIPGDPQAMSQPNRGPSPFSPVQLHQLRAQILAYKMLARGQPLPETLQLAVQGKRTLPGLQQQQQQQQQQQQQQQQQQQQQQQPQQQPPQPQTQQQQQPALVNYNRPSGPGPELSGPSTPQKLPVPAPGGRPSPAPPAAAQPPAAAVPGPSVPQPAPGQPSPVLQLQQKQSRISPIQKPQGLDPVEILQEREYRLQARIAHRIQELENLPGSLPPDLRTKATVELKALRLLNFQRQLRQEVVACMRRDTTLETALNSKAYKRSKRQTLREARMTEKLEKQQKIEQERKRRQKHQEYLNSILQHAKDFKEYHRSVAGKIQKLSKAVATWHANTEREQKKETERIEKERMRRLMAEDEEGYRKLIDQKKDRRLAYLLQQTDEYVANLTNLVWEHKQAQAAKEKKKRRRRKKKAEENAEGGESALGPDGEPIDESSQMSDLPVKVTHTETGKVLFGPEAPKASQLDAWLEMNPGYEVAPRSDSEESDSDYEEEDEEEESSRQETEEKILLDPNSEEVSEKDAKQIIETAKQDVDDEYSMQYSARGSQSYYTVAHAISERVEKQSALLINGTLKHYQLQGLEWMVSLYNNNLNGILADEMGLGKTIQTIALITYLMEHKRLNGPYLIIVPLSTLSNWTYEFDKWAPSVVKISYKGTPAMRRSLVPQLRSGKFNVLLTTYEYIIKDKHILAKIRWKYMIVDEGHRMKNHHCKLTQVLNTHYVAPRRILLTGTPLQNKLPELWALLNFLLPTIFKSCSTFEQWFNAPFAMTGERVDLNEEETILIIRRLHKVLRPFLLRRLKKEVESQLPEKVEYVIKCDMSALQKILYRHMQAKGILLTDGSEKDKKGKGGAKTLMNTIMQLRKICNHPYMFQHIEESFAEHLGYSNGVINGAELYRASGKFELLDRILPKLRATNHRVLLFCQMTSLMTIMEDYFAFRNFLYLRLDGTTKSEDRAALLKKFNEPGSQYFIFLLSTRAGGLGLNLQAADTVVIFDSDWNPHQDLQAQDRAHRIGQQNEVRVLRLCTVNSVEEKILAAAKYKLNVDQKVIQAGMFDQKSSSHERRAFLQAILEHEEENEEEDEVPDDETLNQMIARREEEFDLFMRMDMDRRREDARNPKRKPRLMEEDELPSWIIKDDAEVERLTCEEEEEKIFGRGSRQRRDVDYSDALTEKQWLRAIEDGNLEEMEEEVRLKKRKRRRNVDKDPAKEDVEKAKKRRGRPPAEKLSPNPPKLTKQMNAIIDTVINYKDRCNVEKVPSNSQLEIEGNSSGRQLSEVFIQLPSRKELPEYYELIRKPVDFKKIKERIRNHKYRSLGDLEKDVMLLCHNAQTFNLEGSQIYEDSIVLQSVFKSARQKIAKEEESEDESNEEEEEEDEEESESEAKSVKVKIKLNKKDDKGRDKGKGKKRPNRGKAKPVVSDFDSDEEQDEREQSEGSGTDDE
Summary of the method: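 ADP-Glo luminescence, after depletion of leftover ATP and conversion of ADP, reported the activity. The 1 h room-temperature reaction held 400 μM ATP, 20 nM salmon sperm DNA and 30 nM BRM in 20 mM Tris pH 8, 20 mM MgCl2, 50 mM NaCl, 0.1% Tween-20, 1 mM DTT.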

BRG-1 = target: T2, BRG-1 (Homo sapiens, UniProt P51532); assay: ATPase catalytic activity of BRG-1, ADP-Glo in vitro biochemical assay; details: 30 nM BRG-1, 400 μM ATP, read-out: BRG1 IC50
T2 construct: made in house; host or cells: High Five insect cells
T2 sequence (P51532 whole entry): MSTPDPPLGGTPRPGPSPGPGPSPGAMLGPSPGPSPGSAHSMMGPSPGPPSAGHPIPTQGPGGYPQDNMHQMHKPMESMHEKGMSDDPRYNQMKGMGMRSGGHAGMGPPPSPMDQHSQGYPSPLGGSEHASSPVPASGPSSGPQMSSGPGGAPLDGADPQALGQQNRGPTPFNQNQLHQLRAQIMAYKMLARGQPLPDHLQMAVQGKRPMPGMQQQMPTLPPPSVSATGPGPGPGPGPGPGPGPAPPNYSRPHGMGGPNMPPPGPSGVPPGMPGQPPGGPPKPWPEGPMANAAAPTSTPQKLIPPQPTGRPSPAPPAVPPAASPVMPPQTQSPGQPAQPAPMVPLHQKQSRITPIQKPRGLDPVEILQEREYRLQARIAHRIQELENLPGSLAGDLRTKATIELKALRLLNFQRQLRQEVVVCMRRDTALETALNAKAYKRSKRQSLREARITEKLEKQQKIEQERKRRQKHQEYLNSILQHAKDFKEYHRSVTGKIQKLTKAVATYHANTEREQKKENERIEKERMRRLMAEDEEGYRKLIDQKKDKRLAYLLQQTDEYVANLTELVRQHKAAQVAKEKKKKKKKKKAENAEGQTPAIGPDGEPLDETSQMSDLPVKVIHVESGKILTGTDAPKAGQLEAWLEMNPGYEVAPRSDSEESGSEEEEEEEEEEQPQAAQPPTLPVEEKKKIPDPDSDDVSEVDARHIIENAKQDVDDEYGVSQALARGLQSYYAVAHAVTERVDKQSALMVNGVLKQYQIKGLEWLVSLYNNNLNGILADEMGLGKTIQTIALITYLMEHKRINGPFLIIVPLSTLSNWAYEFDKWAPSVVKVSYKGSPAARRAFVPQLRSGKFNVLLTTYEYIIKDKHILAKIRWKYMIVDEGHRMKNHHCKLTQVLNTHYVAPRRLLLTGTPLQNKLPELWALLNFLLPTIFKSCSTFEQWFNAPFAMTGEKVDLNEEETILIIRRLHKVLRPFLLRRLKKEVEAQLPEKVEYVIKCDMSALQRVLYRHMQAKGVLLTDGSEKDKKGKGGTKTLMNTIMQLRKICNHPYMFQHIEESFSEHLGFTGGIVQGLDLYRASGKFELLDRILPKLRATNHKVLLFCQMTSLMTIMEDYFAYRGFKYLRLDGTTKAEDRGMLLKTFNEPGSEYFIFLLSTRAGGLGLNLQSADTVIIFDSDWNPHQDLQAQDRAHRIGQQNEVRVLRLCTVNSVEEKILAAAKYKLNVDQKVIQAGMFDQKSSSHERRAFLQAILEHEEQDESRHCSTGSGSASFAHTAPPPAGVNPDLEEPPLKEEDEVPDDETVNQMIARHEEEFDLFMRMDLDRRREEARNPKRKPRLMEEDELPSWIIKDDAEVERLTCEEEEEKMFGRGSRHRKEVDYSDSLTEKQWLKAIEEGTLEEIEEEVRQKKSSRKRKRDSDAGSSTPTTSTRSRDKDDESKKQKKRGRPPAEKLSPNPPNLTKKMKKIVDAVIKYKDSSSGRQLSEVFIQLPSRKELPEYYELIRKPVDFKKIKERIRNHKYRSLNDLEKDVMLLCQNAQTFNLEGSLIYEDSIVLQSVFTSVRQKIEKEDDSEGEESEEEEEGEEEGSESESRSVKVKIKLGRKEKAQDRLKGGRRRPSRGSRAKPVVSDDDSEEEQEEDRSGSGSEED
Summary of the method: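 ADP produced by BRG-1 was quantified by luciferase luminescence. A 60 min room-temperature ADP-to-ATP conversion followed a 40 min ATP-depletion step.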

[1] = ATPase catalytic activity, ADP-Glo

Row | SMILES | IC50 (BRM; ADP-Glo ATPase assay) [nM] | Ratio* (BRG1 IC50 (μM) divided by BRM IC50 (μM)) (BRM) | IC50 (BRG-1; ADP-Glo ATPase assay) [nM] | IC50 (BRM; [1]) [nM] | Ratio* (BRM; ratio of BRG1 IC50 to BRM IC50) | IC50 (BRG-1; [1]) [nM] | Ratio* (BRM; ratio BRG1 IC50 / BRM IC50)
1 | CC(F)(F)COc1cccc(-c2ccc3cnc(CNC(=O)c4ccc5c(c4)S(=O)(=O)CCOC5)cc3n2)n1 [Compound 126] | 33.5 | 8.80 | 295 | – | – | – | –
2 | COc1nc(C(C)(F)F)ccc1-c1ccc2cnc(CNC(=O)c3cc(F)c4c(c3)S(=O)(=O)[C@@H](C)COC4)cc2n1 [Compound 543] | – | – | – | 20.2 | 18.97 | 383 | –
3 | C[C@@H]1CN(c2cccc(-c3ccc4cnc(CNC(=O)c5ccc(Cl)c(S(C)(=O)=O)c5)cc4n3)n2)C[C@@H](C)O1 [Compound 177] | 15.8 | 14.02 | 222 | – | – | – | –
4 | CCOc1nc(-c2ccc3cnc(CNC(=O)c4ccc5c(c4)S(=O)(=O)CCOC5)cc3n2)ccc1C(F)F [Compound 489] | – | – | – | 15.9 | 11.37 | 181 | –
5 | O=C(NCc1cc2nc(-c3cccc([C@@]45CCOCC4C5)n3)ccc2cn1)c1ccc2c(c1)S(=O)(=O)CCOC2 (stereo partly drawn) [Compound 378] | – | – | – | 11.7 | 13.88 | 162 | –
6 | Cc1cnc2c(c1)OCCN2c1ccc2cnc(CNC(=O)c3ccc4c(c3)S(=O)(=O)CCOC4)cc2n1 [Compound 491] | – | – | – | 5.8 | 10.83 | 62.8 | –
7 | COC[C@@H]1C[C@H]1N(C)c1cccc(-c2ccc3cnc(CNC(=O)c4ccc5c(c4)S(=O)(=O)CCOC5)cc3n2)n1 [Compound 311] | – | – | – | 22 | 12.86 | 283 | –
8 | O=C(NCc1cc2cc(-c3cccc(N4CCC4)n3)ccc2cn1)c1cnc2c(c1)S(=O)(=O)CCOC2 [Compound 256] | 49 | 8.69 | 426 | – | – | – | –
9 | Cc1cnc2c(c1)OCCN2c1ccc2cnc(CNC(=O)c3ccc4c(c3)S(=O)(=O)C(C)COC4)cc2n1 (stereo not drawn) [Compound 545] | – | – | – | 7.7 | 8.60 | 65.9 | –
10 | CN(CCOC1CC1)c1cccc(-c2ccc3cnc(CNC(=O)c4ccc5c(c4)S(=O)(=O)CCOC5)cc3n2)n1 [Compound 361] | – | – | – | 7.4 | 19.62 | 145 | –
11 | CO[C@H]1C[C@H]1N(C)c1cccc(-c2ccc3cnc(CNC(=O)c4ccc5c(c4)S(=O)(=O)CCOC5)cc3n2)n1 [Compound 534] | – | – | – | 6.1 | 12.41 | 76.3 | –
12 | C[C@@H]1CN(c2ccnc(-c3ccc4cnc(CNC(=O)c5ccc6c(c5)S(=O)(=O)[C@@H](C)COC6)cc4c3)n2)C[C@H](C)O1 [Compound 708] | 52.9 | – | 907 | – | – | – | 17.15
13 | CCOc1cccc(-c2ccc3cnc(CNC(=O)c4cc(F)c5c(c4)S(=O)(=O)[C@@H](C)COC5)cc3n2)n1 [Compound 453] | – | – | – | 27.4 | 21.75 | 595 | –
14 | C[C@@H]1CN(c2cccc(-c3ccc4cnc(CNC(=O)c5ccc6c(c5)S(=O)(=O)CC[C@H](C5CC5)O6)cc4n3)n2)C[C@H](C)O1 [Compound 435] | – | – | – | 230 | 18.45 | 4250 | –
15 | COc1cc(C(F)F)ccc1-c1ccc2cnc(CNC(=O)c3ccc4c(c3)S(=O)(=O)[C@@H](C)COC4)cc2n1 [Compound 320] | – | – | – | 12 | 18.81 | 226 | –
16 | O=C(NCc1cc2nc(N3CCCc4ccc(OCC(F)F)nc43)ccc2cn1)c1ccc2c(c1)S(=O)(=O)CCOC2 [Compound 601] | – | – | – | 215 | 8.88 | 1910 | –
17 | O=C(NCc1cc2c(cn1)CCN(c1cncc(C3CC3)n1)C2)c1ccc2c(c1)S(=O)(=O)CCOC2 [Compound 290] | 172 | 7.19 | 1240 | – | – | – | –
18 | O=C(NCc1cc2nc(-c3cccc(C4(CF)CC4)n3)ccc2cn1)c1ccc2c(c1)S(=O)(=O)CCOC2 [Compound 120] | 44.7 | 10.48 | 469 | – | – | – | –
19 | CCN(CC)c1cccc(-c2ccc3cnc(CNC(=O)c4cc(F)c5c(c4)S(=O)(=O)CCOC5)cc3n2)n1 [Compound 62] | 18.9 | 13.08 | 247 | – | – | – | –

Row | SMILES | IC50 (BRM; ADP-Glo ATPase assay) [nM] | Ratio* (BRG1 IC50 (μM) divided by BRM IC50 (μM)) (BRM) | IC50 (BRG-1; ADP-Glo ATPase assay) [nM] | IC50 (BRM; [1]) [nM] | Ratio* (BRM; ratio of BRG1 IC50 to BRM IC50) | IC50 (BRG-1; [1]) [nM] | Ratio* (BRM; ratio BRG1 IC50 / BRM IC50)
20 | O=C(NCc1cc2nc(N3CCOc4cc(Cl)cc(F)c43)ccc2cn1)c1cc(F)c2c(c1)S(=O)(=O)CCOC2 [Compound 773] | 38.5 | – | 1170 | – | – | – | 30.25
21 | COCCN(C)c1cccc(-c2ccc3cnc(CNC(=O)c4ccc(Cl)c(S(C)(=O)=O)c4)cc3n2)n1 [Compound 97] | 20.3 | 15.97 | 324 | – | – | – | –
22 | O=C(NCc1cc2nc(N3CCOc4cc(Cl)cnc43)ccc2cn1)c1ccc2c(c1)S(=O)(=O)CCOC2 [Compound 645] | – | – | – | 9.8 | 17.38 | 170 | –
23 | O=C(NCc1cc2nc(N3CCCc4ccc(C(F)(F)F)cc43)ccc2cn1)c1ccc2c(c1)S(=O)(=O)CCOC2 [Compound 525] | – | – | – | 25.1 | 14.85 | 373 | –
24 | O=C(NCc1cc2nc(N3CCOc4cc(Cl)c(C5CC5)nc43)ccc2cn1)c1ccc2c(c1)S(=O)(=O)CCOC2 [Compound 698] | – | – | – | 193 | 24.47 | 4720 | –
25 | CN(CCC(F)F)c1cccc(-c2ccc3cnc(CNC(=O)c4ccc5c(c4)S(=O)(=O)CCOC5)cc3n2)n1 [Compound 460] | – | – | – | 24.2 | 9.71 | 235 | –
26 | O=C(NCc1cc2nc(N3CCCc4ccc(C(F)(F)F)nc43)ccc2cn1)c1ccc2c(c1)S(=O)(=O)CCOC2 [Compound 570] | – | – | – | 66.9 | 8.32 | 557 | –
27 | O=C(NCc1cc2nc(N3CCCc4ccc(C5CCC5)nc43)ccc2cn1)c1ccc2c(c1)S(=O)(=O)CCOC2 [Compound 730] | 16.4 | – | 814 | – | – | – | 49.65
28 | CO[C@@H](C)CN(C)c1cccc(-c2ccc3cnc(CNC(=O)c4ccc5c(c4)S(=O)(=O)CCOC5)cc3n2)n1 [Compound 64] | 17.5 | 19.39 | 340 | – | – | – | –
29 | O=C(NCc1cc2nc(-c3cccc(N4CCC(F)(F)CC4)n3)ccc2cn1)c1ccc2c(c1)S(=O)(=O)CCOC2 [Compound 184] | 80.5 | 9.55 | 769 | – | – | – | –
30 | O=C(NCc1cc2nc(-c3cccc4c3CCCN4CC(F)F)ccc2cn1)c1ccc2c(c1)S(=O)(=O)CCOC2 [Compound 127] | 846 | 4.79 | 4050 | – | – | – | –
31 | O=C(NCc1cc2nc(-c3cccc(OC4COC4)c3)ccc2cn1)c1ccc2c(c1)S(=O)(=O)CCOC2 [Compound 242] | 286 | 11.06 | 3170 | – | – | – | –
32 | CN(C[C@@H]1CCO1)c1cccc(-c2ccc3cnc(CNC(=O)c4ccc5c(c4)S(=O)(=O)CCOC5)cc3n2)n1 [Compound 382] | – | – | – | 9.1 | 13.22 | 120 | –
33 | CCOCc1ccc2c(n1)N(c1ccc3cnc(CNC(=O)c4ccc5c(c4)S(=O)(=O)CCOC5)cc3n1)CCC2 [Compound 564] | – | – | – | 33.6 | 26.25 | 881 | –
34 | COc1cc(C)nc2c1CCCN2c1ccc2cnc(CNC(=O)c3ccc4c(c3)S(=O)(=O)CCOC4)cc2n1 [Compound 732] | 9.3 | – | 92.5 | – | – | – | 9.97
35 | COc1cnc2c(c1)OCCN2c1ccc2cnc(CNC(=O)c3ccc4c(c3)S(=O)(=O)CCOC4)cc2n1 [Compound 619] | – | – | – | 5.6 | 11.17 | 62.7 | –
36 | COCCN(c1cccc(-c2ccc3cnc(CNC(=O)c4ccc5c(c4)S(=O)(=O)CCOC5)cc3n2)n1)C1CCC1 [Compound 374] | – | – | – | 8.8 | 8.04 | 70.7 | –
37 | Cc1c(Cl)cc(C(=O)NCc2cc3nc(-c4cncc(C5CC5)n4)ccc3cn2)cc1S(C)(=O)=O [Compound 269] | 200 | 25.03 | 5000 | – | – | – | –
